In experiment [1] the target is T1, chymotrypsin-like activity in living prostate (PC-3) cancer cells (Homo sapiens, UniProt P28074).
T1 construct: endogenous in cells; host or cells: PC-3 cells (intact)
The experiment is described as follows: Proteasome chymotrypsin-like activity in living PC-3 cells. The class given is cell-based. On the procedure: Inhibition of the proteasome activity in living cells by tea polyphenols—To measure inhibition of the chymotrypsin-like activity in living tumor cells, Jurkat T (1×10^5 cells/ml/well), MCF7 or PC-3 cells (1×10^4 cells/ml/well) are cultured in 24-well plates. These cells are first incubated for 12 h with various concentrations of EGCG, EGC, β-lactone or LLnL, followed by an additional 2 h-incubation with fluorogenic peptide substrates, Suc-Leu-Leu-Val-Tyr-AMC for the chymotrypsin-like activity and Z-Gly-Gly-Arg-AMC for the trypsin-like activity. After that, cell medium (200 μl per sample) is collected and used for measurement of free AMCs.
(b) The peptide substrate for the proteasomal chymotrypsin-like activity, Suc-Leu-Leu-Val-Tyr-AMC, is used to measure the proteasome activity in intact Jurkat, MCF-7 and PC-3 cells, which is inhibitable by co-incubation with EGCG (FIG. 16C). A similar assay is performed to measure potency and selectivity of EGCG (vs. EGC) or ECG (vs. EC) in the selected cell lines. […] After that, medium is collected and the liberated AMCs in the medium are measured by fluorometer to measure in vivo potency and selectivity of tea polyphenols.

Experiment [2] concerns LNCaP prostate cancer cells. The experiment in a line: Cell cycle analysis by flow cytometry, LNCaP cells. The class given is cell-based, human. To be noted: 10 μM, 36 h. On the procedure: (§1) FIG. 6. Cell cycle analysis. Asynchronous Jurkat, LNCaP, WI-38, and VA-13 cells are treated with 10 μM EGCG and harvested at the time points indicated. Cells are prepared and analyzed by flow cytometry as described in the The Materials and Methods section of Example 1. Growth arrest is determined by the increase in the percentage of G1 population.
(§2) Cell cycle analysis—Cell cycle analysis based on DNA content is performed as follows. Cells are harvested, counted and washed twice with PBS. Cells (5×10^6 ) are then suspended in 0.5 ml PBS, pipetted and fixed in 5 ml of 70% ethanol for at least 2 h at −20° C. Cells are centrifuged, resuspended in 1 ml of propidium iodide staining solution (50 μg propidium iodide, 100 units RNase A and 1 mg glucose per ml PBS) and incubated at room temperature for 30 min. The cells are then analyzed with FACScan (Becton Dickinson Immunocytometry, CA.), ModFit LT and WinMDI V.2.8 cell cycle analysis software (Verity Software, Topsham, Me.). The cell cycle distribution is shown as the percentage of cells containing G1, S, G2, and M DNA judged by propidium iodide staining.
On the technique in general: Flow cytometry measures light scatter and fluorescence of single cells or particles in a stream.

For the next experiment, the system named is normal human WI-38 cells. The experiment in a line: Cell cycle analysis by flow cytometry, WI-38 cells. The class given is cell-based. To be noted: WI-38, 10 μM. How it is done:
as §1, §2

Another experiment deals with p27 in MCF-7 tumors. The experiment in a line: Nude mice bearing human breast MCF-7 tumors, biochemical end points. The class given is in vivo. As to conditions: mice pre-fed or injected into the tumors. The text has this:
Treatment of drinking water with green tea, a green tea polyphenol extract or EGCG, or direct injection into tumors of a solution containing a green tea polyphenol extract or EGCG, inhibits breast or other tumor growth in nude mice. In (a) it is shown that antitumor activity of tea polyphenols correlates to their potency to inhibit the proteasome activity. All mice receive a 90-day slow-release subcutaneous (s.c.) estrogen pellet (Innovative Research) in the anterior flank 7 days before tumor inoculation. In Experiment 1, mice (5 per group) are pre-fed with a solution of EGCG, EGC, ECG, EC, a green tea extract (1, 10, and 50 mg/kg) or water three times per week for 2 weeks, followed by s.c. implanting human breast MCF-7 tumor cells in nude mice above the right and left flanks (10^7 cells per flank). When tumors in the control group reach ˜1000 mm^3 the experiment is terminated. […] Evaluation of the antitumor activity of tea polyphenols is determined by measuring the change in tumor size of the treated group compared to the control group. […] Levels of p27 and Bax protein in tumor tissues are measured by Western blotting and immunohistochemistry. […] Bax localization (by immunohistochemistry), processing of caspase-3, cleavage of PARP (by Western blotting) and apoptosis (by TUNEL) are then measured. […]

The subject of experiment [3] is SV-40-transformed WI-38 cells (VA-13). The experiment in a line: Cell cycle analysis by flow cytometry, VA-13 cells. The class given is cell-based, human. As to conditions: VA-13, 10 μM. On the procedure:
as §1, §2

“Also recorded” adds a separate entry of the source.

On to `O=C(O[C@@H]1Cc2c(O)cc(O)cc2O[C@@H]1c1cc(O)c(O)c(O)c1)c1cc(O)c(O)c(O)c1` [EGCG, (−)-epigallocatechin-3-gallate], for which, in experiment [1], the “inhibition of chymotrypsin-like activity in living PC-3 cells (in words)” value is “inhibitable; also recorded: inhibits”. The “increase in G1 population” value in experiment [2] is reported as roughly 25%; with normal human WI-38 cells (36 h) it was 22%; in experiment [3] (12 h) it was 21%; in experiment [3] (36 h), 33%. The “decrease in G1 population” value with normal human WI-38 cells (12 h) is 22%. In addition, the “increase in G2/M population” value in the experiment on normal human WI-38 cells (12 h) stood at 6%. Further, the “increase in S population” value with normal human WI-38 cells (12 h) was 16%. Moreover, the “p27 levels in tumors” value in the experiment with p27 in MCF-7 tumors is on record as “Increased p27 levels”.

These data come from patent publication US6713506B2, “Tea polyphenol esters and analogs thereof for cancer prevention and treatment” (University of South Florida, priority 2000, dated 2004).
